One test addresses BTK (Homo sapiens, UniProt Q06187). Kind of test: Degradation of BTK protein in Namalwa cells (Western blot; DC50, Dmax). The settings on record: for DC50: cell line not given.
The test system of the next test is JeKo-1 cells. In words: Antiproliferative effect, MTS cell viability assay, JeKo-1 cells. The class given is cell-based. The settings on record: Homo sapiens; JeKo-1 mantle cell lymphoma cells; read-out: IC50 (anti-proliferation) JeKO-1 cells. Summed up: (§1)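 Tested at six concentrations (0 to 10 μM in tenfold steps), 72 h; viability by MTS, A490.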
The next test deals with Mino cells. Kind of test: Antiproliferative effect, MTS cell viability assay, Mino cells. The class given is cell-based. The settings on record: Homo sapiens, MINO, Mino mantle cell lymphoma cells; read-out: IC50 (anti-proliferation) Mino cells. The method in brief: as §1
Setting [1] is: read-out: DC50 (BTK degradation), concentration giving 50% reduction of BTK expression level.
Setting [2] is: read-out: Dmax (BTK degradation).

Read-outs that look alike come from different tables or passages of the source.

Chain of BTK (Q06187 whole entry): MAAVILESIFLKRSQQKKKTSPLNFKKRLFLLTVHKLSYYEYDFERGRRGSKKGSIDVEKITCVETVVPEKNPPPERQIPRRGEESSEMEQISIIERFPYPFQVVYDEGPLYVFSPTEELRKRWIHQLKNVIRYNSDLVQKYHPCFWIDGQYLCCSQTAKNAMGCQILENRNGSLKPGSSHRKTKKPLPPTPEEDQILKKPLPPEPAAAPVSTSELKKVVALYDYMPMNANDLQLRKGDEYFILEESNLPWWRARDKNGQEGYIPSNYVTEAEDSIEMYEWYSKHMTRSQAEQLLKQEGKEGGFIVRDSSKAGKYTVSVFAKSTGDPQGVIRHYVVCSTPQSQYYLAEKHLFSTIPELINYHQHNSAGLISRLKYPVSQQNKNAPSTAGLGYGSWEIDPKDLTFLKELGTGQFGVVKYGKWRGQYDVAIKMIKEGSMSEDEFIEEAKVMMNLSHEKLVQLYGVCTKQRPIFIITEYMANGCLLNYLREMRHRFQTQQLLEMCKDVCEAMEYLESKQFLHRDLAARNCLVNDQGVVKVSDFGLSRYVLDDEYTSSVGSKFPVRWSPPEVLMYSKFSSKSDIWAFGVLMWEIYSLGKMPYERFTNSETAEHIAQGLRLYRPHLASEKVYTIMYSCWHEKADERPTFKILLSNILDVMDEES

`Nc1ncnc2c1c(-c1ccc(Oc3ccccc3)cc1)nn2C1CCN(CCN2CCC(N3CCN(c4ccc5c(c4)CN(C4CCC(=O)NC4=O)C5=O)CC3)C2)CC1` (stereo not drawn) [Compound 460, 3-(5-(4-(1-(2-(4-(4-amino-3-(4-phenoxyphenyl)-1H-pyrazolo[3,4-d]pyrimidin-1-yl)piperidin-1-yl)ethyl)pyrrolidin-3-yl)piperazin-1-yl)-1-oxoisoindolin-2-yl)piperidine-2,6-dione]: the DC50 on BTK (setting [1]) fell in the range of 0.01 to 0.05 µM. For the same molecule, at BTK (setting [2]), the Dmax is over 75%. The IC50 with JeKo-1 cells and in the test on Mino cells was 1 to 10 µM in each case.

As to `Nc1ncnc2c1c(-c1ccc(Oc3ccccc3)cc1)nn2C1CCN(CCCN2CCC(CN3CCN(c4ccc(NC5CCC(=O)NC5=O)cc4)CC3)CC2)CC1` (stereo not drawn) [Compound 560, 3-((4-(4-((1-(3-(4-(4-amino-3-(4-phenoxyphenyl)-1H-pyrazolo[3,4-d]pyrimidin-1-yl)piperidin-1-yl)propyl)piperidin-4-yl)methyl)piperazin-1-yl)phenyl)amino)piperidine-2,6-dione], on BTK (setting [1]), the half-maximal degradation concentration (DC50) is under 0.01 µM. In addition, at BTK (setting [2]), the maximal degradation (Dmax) is over 90%. Moreover, the IC50 with JeKo-1 cells and in the test with Mino cells was under 1 µM in each case.

Turning to `Nc1ncnc2c1c(-c1ccc(Oc3ccccc3)cc1)nn2[C@@H]1CCCN(CC2CCN(CC3CCN(c4ccc(C(=O)NC5CCC(=O)NC5=O)cc4)CC3)CC2)C1` (stereo partly drawn) [Compound 515, 4-(4-((4-(((R)-3-(4-amino-3-(4-phenoxyphenyl)-1H-pyrazolo[3,4-d]pyrimidin-1-yl)piperidin-1-yl)methyl)piperidin-1-yl)methyl)piperidin-1-yl)-N-(2,6-dioxopiperidin-3-yl)benzamide], the DC50 at BTK (setting [1]) is under 0.01 µM. Moreover, the greatest degradation seen (Dmax) on BTK (setting [2]) was over 90%. Further, the IC50 with JeKo-1 cells is 1 to 10 µM; in the test with Mino cells, under 1 µM.

For the molecule `Nc1ncnc2c1c(-c1ccc(Oc3ccccc3)cc1)nn2C1CCN(CC2CN(CC3CCN(c4ccc5c(c4)CN(C4CCC(=O)NC4=O)C5=O)CC3)C2)CC1` (stereo not drawn) [Compound 440], at BTK (setting [1]), the 50% degradation concentration (DC50) is under 0.01 µM. Moreover, on BTK (setting [2]), the Dmax was over 90%. Further, the IC50 is 1 to 10 µM in the test with JeKo-1 cells and under 1 µM in the test on Mino cells.

On to `Nc1ncnc2c1c(-c1ccc(Oc3ccccc3)cc1)nn2C1CCN(C2CCN(C(=O)N3CCC(c4ccc5c(c4)CN(C4CCC(=O)NC4=O)C5=O)CC3)CC2)CC1` (stereo not drawn) [Compound 228, 3-(5-(1-(4-(4-amino-3-(4-phenoxyphenyl)-1H-pyrazolo[3,4-d]pyrimidin-1-yl)-[1,4′-bipiperidine]-1′-carbonyl)piperidin-4-yl)-1-oxoisoindolin-2-yl)piperidine-2,6-dione], for which the Dmax on BTK is over 50%. Moreover, at BTK (BTK degradation), the 50% degradation concentration (DC50) was over 0.05 µM. Further, the IC50 in the test with JeKo-1 cells and with Mino cells was over 10 µM throughout.

`NC(=O)c1c(-c2ccc(Oc3ccccc3)cc2)nn2c1NCC[C@H]2C1CCN(CC2CCN(C(=O)N3CCC(CC4CCN(c5ccc6c(c5)CN(C5CCC(=O)NC5=O)C6=O)CC4)CC3)CC2)CC1` (stereo partly drawn) [Compound 414, (7S)-7-(1-((1-(4-((1-(2-(2,6-dioxopiperidin-3-yl)-1-oxoisoindolin-5-yl)piperidin-4-yl)methyl)piperidine-1-carbonyl)piperidin-4-yl)methyl)piperidin-4-yl)-2-(4-phenoxyphenyl)-4,5,6,7-tetrahydropyrazolo[1,5-a]pyrimidine-3-carboxamide]: the DC50 on BTK (setting [1]) is under 0.01 µM. Also, on BTK (setting [2]), the Dmax was over 90%. The IC50 with JeKo-1 cells and in the test on Mino cells was under 1 µM each time.

Consider `Nc1ncnc2c1c(-c1ccc(Oc3ccccc3)cc1)nn2[C@@H]1CCCN(C2CN(C(=O)N3CCC(N4CCN(c5ccc6c(c5)CN(C5CCC(=O)NC5=O)C6=O)CC4)CC3)C2)C1` (stereo partly drawn) [Compound 482, 3-(5-(4-(1-(3-((R)-3-(4-amino-3-(4-phenoxyphenyl)-1H-pyrazolo[3,4-d]pyrimidin-1-yl)piperidin-1-yl)azetidine-1-carbonyl)piperidin-4-yl)piperazin-1-yl)-1-oxoisoindolin-2-yl)piperidine-2,6-dione], for which the DC50 at BTK (setting [1]) is under 0.01 µM. The Dmax at BTK (setting [2]) was over 90%. The IC50 was 1 to 10 µM in the test with JeKo-1 cells and under 1 µM in the test on Mino cells.

In the case of `Nc1ncnc2c1c(-c1ccc(Oc3ccccc3)cc1)nn2C1CCN(C2CCN(CC3CN(c4ccc5c(c4)CN(C4CCC(=O)NC4=O)C5=O)C3)CC2)CC1` (stereo not drawn) [Compound 434, 3-(5-(3-((4-(4-amino-3-(4-phenoxyphenyl)-1H-pyrazolo[3,4-d]pyrimidin-1-yl)-[1,4′-bipiperidin]-1′-yl)methyl)azetidin-1-yl)-1-oxoisoindolin-2-yl)piperidine-2,6-dione], the DC50 at BTK (setting [1]) lay in the range of 0.01 to 0.05 µM. Moreover, the Dmax on BTK (setting [2]) was over 90%. Besides, the IC50 is 1 to 10 µM with JeKo-1 cells and under 1 µM with Mino cells.

At BTK, `NC(=O)c1c(-c2ccc(Oc3ccccc3)cc2)nn2c1NCC[C@H]2C1CCN(C(=O)N2CCC(CN3CCN(c4ccc5c(c4)C(=O)N(C4CCC(=O)NC4=O)C5=O)CC3)CC2)CC1` (stereo partly drawn) [Compound 291, (7S)-7-(1-(4-((4-(2-(2,6-dioxopiperidin-3-yl)-1,3-dioxoisoindolin-5-yl)piperazin-1-yl)methyl)piperidine-1-carbonyl)piperidin-4-yl)-2-(4-phenoxyphenyl)-4,5,6,7-tetrahydropyrazolo[1,5-a]pyrimidine-3-carboxamide] displayed a Dmax of over 90%. The same molecule came in with a DC50 at BTK (BTK degradation) of 0.01 to 0.05 µM. The IC50 in the test on JeKo-1 cells and in the test on Mino cells was under 1 µM throughout.

With `Nc1ncnc2c1c(-c1ccc(Oc3ccccc3)cc1)nn2C1CCC(C(=O)N2CC(C3CCN(c4ccc5c(c4)C(=O)N(C4CCC(=O)NC4=O)C5=O)CC3)C2)CC1` (stereo not drawn) [Compound 513, 5-(4-(1-(4-(4-amino-3-(4-phenoxyphenyl)-1H-pyrazolo[3,4-d]pyrimidin-1-yl)cyclohexane-1-carbonyl)azetidin-3-yl)piperidin-1-yl)-2-(2,6-dioxopiperidin-3-yl)isoindoline-1,3-dione], the DC50 at BTK (setting [1]) was under 0.01 µM. The greatest degradation seen (Dmax) on BTK (setting [2]) was over 90%. For the same molecule, the IC50 in the test on JeKo-1 cells and with Mino cells was under 1 µM each time.

In turn, `Nc1ncnc2c1c(-c1ccc(Oc3ccccc3)cc1)nn2C1CCN(C2CCN(C(=O)N3CCC(CN4CCN(c5ccc6c(c5)C(=O)N(C5CCC(=O)NC5=O)C6=O)CC4)CC3)CC2)CC1` (stereo not drawn) [Compound 239, 5-(4-((1-(4-(4-amino-3-(4-phenoxyphenyl)-1H-pyrazolo[3,4-d]pyrimidin-1-yl)-[1,4′-bipiperidine]-1′-carbonyl)piperidin-4-yl)methyl)piperazin-1-yl)-2-(2,6-dioxopiperidin-3-yl)isoindoline-1,3-dione] returned a Dmax on BTK of over 90%. At BTK (BTK degradation), this molecule gave a DC50 of 0.01 to 0.05 µM. For the same molecule, the IC50 is under 1 µM in the test with JeKo-1 cells and 1 to 10 µM in the test on Mino cells.

In the case of `Nc1ncnc2c1c(-c1ccc(Oc3ccccc3)cc1)nn2C1CCN(CC2CCN(CC3CCN(CC4CN(c5ccc6c(c5)CN(C5CCC(=O)NC5=O)C6=O)C4)CC3)CC2)CC1` (stereo not drawn) [Compound 432, 3-(5-(3-((4-((4-((4-(4-amino-3-(4-phenoxyphenyl)-1H-pyrazolo[3,4-d]pyrimidin-1-yl)piperidin-1-yl)methyl)piperidin-1-yl)methyl)piperidin-1-yl)methyl)azetidin-1-yl)-1-oxoisindolin-2-yl)piperidine-2,6-dione], the 50% degradation concentration (DC50) on BTK (setting [1]) is 0.01 to 0.05 µM. Moreover, on BTK (setting [2]), the maximal degradation (Dmax) was over 90%. For the same molecule, the IC50 with JeKo-1 cells and with Mino cells was under 1 µM in each case.

The values above are taken from US12139492B2 (Endotarget Inc., priority 2021, dated 2024).
